The results in this text go back to ChEMBL document CHEMBL5625245, “Novel ProTide prodrugs of 5-fluoro-2'-deoxyuridine for the treatment of liver cancer” (Eur J Med Chem, 2023).

Converted amounts (≈) assume the structure as drawn. Some results are limits rather than exact numbers.

Series [1] deals with HepG2. Put plainly: Antiproliferative activity against human HepG2 cells assessed as reduction in cell viability at 20 uM measured after 48 hrs by MTT assay relative to control. The series is classed as functional.
The subject of series [2] is Bel-7402. Briefly: Antiproliferative activity against human Bel-7402 cells assessed as reduction in cell viability at 20 uM measured after 48 hrs by MTT assay relative to control. The class given is functional.
Series [3] concerns Bel-7402. Put plainly: Antiproliferative activity against human Bel-7402 cells assessed as reduction in cell viability measured after 48 to 72 hrs by MTT assay. The series is classed as functional, cell-based.
The test system of series [4] is HepG2. Briefly: Antiproliferative activity against human HepG2 cells assessed as reduction in cell viability measured after 48 to 72 hrs by MTT assay. The class given is functional, cell-based.
A short description of series [5]: Antiproliferative activity against human L02 cells assessed as reduction in cell viability measured after 48 to 72 hrs by MTT assay. The class given is toxicity, cell-based.
The nature of series [6]: Antiproliferative activity against human NCM460 cells assessed as reduction in cell viability measured after 48 to 72 hrs by MTT assay. The class given is toxicity, cell-based.
A short description of series [7]: Selectivity index, ratio of IC50 for human L02 cells to IC50 for human Bel-7402 cells. The series is classed as toxicity. To be noted: L02 cells and Bel-7402 cells, read-out: Ratio IC50.
The nature of series [8]: Selectivity index, ratio of IC50 for human L02 cells to IC50 for human HepG2 cells. The class given is toxicity. To be noted: L02 cells and HepG2 cells, read-out: Ratio IC50.
A short description of series [9]: Metabolic stability in human plasma assessed as half life at 1 mg/ml measured upto 72 hrs by HPLC analysis. The class given is ADME, cell-free.
Series [10] in a line: Metabolic stability in rat plasma assessed as half life at 1 mg/ml measured upto 72 hrs by HPLC analysis. The series is classed as ADME, cell-free.
Series [11] in a line: Metabolic stability in rat liver homogenates assessed as half life at 1 mg/ml measured after 4 hrs by HPLC analysis. The class given is ADME, tissue-based.
The nature of series [12]: Drug metabolism in rat liver homogenate assessed as formation of (2S)-2-[[[(2R,3S,5R)-3-[(2S)-1-[(2S)-2-(tert-butoxycarbonylamino)-3-methyl-butanoyl]pyrrolidine-2-carbonyl]oxy-5-(5-fluoro-2,4-dioxo-pyrimidin-1-yl)tetrahydrofuran-2-yl]methoxy-hydroxy-phosphoryl]amino]propanoic acid measured after 20 mins. As to conditions: tissue homogenate. The series is classed as ADME, tissue-based.

A short description of series [13]: Drug metabolism in rat liver homogenate assessed as formation of (2S)-2-[[[(2R,3S,5R)-3-[(2S)-1-[(2S)-2-(tert-butoxycarbonylamino)-3-methyl-butanoyl]pyrrolidine-2-carbonyl]oxy-5-(5-fluoro-2,4-dioxo-pyrimidin-1-yl)tetrahydrofuran-2-yl]methoxy-hydroxy-phosphoryl]amino]propanoic acid measured after 120 mins. The series is classed as ADME, tissue-based. To be noted: tissue homogenate, 2 h.

Series [14] in a line: Solubility of the compound in 100% saline at 25 degreeC by HPLC analysis. The class given is physicochemical.
Series [15] can be described thus: Solubility of the compound in 5% PEG300/95% saline at 25 degreeC by HPLC analysis. The series is classed as physicochemical.
Series [16] can be described thus: Solubility of the compound in 5% PBS/95% saline at 25 degreeC by HPLC analysis. The class given is physicochemical.
Series [17] in a line: Solubility of the compound in 5% DMSO/95% saline at 25 degreeC by HPLC analysis. The class given is physicochemical.
Series [18] is described as follows: Solubility of the compound in 5% DMSO/8% Tween80/87% saline at 25 degreeC by HPLC analysis. The class given is physicochemical.
Series [19] is described as follows: Solubility of the compound in 5% DMSO/10% Tween80/85% saline at 25 degreeC by HPLC analysis. The class given is physicochemical.
The nature of series [20]: Solubility of the compound in 5% DMSO/10% PEG300/85% saline at 25 degreeC by HPLC analysis. The series is classed as physicochemical.
Series [21] in a line: Solubility of the compound in 5% DMSO/10% cremophor EL/85% saline at 25 degreeC by HPLC analysis. The class given is physicochemical.
A short description of series [22]: Solubility of the compound in 2% DMSO/10% tween80/88% saline at 25 degreeC by HPLC analysis. The series is classed as physicochemical.
The nature of series [23]: Solubility of the compound in 2% DMSO/8% tween80/90% saline at 25 degreeC by HPLC analysis. The class given is physicochemical.
For series [24], the system named is HepG2. Briefly: Antitumor activity against human HepG2 cells xenografted in orthotopic mouse model assessed as average number of tumor at 60 mg/kg, iv administered twice daily for 18 days in presence of 5-Fluorouracil (reference value: 49+/3.6 mM). The class given is functional. As to conditions: time 18 day.
The test system of series [25] is HepG2. Briefly: Antitumor activity against human HepG2 cells xenografted in orthotopic mouse model assessed as tumor growth inhibition at 60 mg/kg, iv administered twice daily for 18 days in presence of 5-Fluorouracil relative to control. The class given is functional. To be noted: HepG2, 432 h, time 18 day, read-out: TGI.
Series [26] in a line: Toxicity in orthotopic mouse assessed as effect on body weight at 60 mg/kg, iv administered twice daily for 18 days. The series is classed as organism-based. To be noted: in vivo, 432 h, time 18 day.
The nature of series [27]: Toxicity in orthotopic mouse assessed as effect on drug tolerance at 60 mg/kg, iv administered twice daily for 18 days. The series is classed as organism-based. To be noted: in vivo, 432 h, time 18 day.
The nature of series [28]: Toxicity in orthotopic mouse assessed as effect on heart at 60 mg/kg, iv administered twice daily for 18 days by H and E staining based analysis. As to conditions: in vivo, 432 h, time 18 day. The series is classed as organism-based.
The nature of series [29]: Toxicity in orthotopic mouse assessed as effect on liver at 60 mg/kg, iv administered twice daily for 18 days by H and E staining based analysis. The series is classed as organism-based. As to conditions: in vivo, 432 h, time 18 day.
A short description of series [30]: Toxicity in orthotopic mouse assessed as effect on spleen at 60 mg/kg, iv administered twice daily for 18 days by H and E staining based analysis. The class given is organism-based. As to conditions: in vivo, 432 h, time 18 day.
Series [31] in a line: Toxicity in orthotopic mouse assessed as effect on lung at 60 mg/kg, iv administered twice daily for 18 days by H and E staining based analysis. The class given is organism-based. As to conditions: in vivo, 432 h, time 18 day.
A short description of series [32]: Toxicity in orthotopic mouse assessed as effect on kidney at 60 mg/kg, iv administered twice daily for 18 days by H and E staining based analysis. The class given is organism-based. To be noted: in vivo, 432 h, time 18 day.
Series [33] in a line: Toxicity in orthotopic mouse assessed as change in liver weight at 60 mg/kg, iv administered twice daily for 18 days. The series is classed as organism-based. As to conditions: in vivo, 432 h, time 18 day.
For series [34], the system named is HepG2. Briefly: Antitumor activity against human HepG2 cells xenografted in orthotopic mouse model assessed as average number of tumor at 15 mg/kg, iv administered twice daily for 18 days (reference value: 49+/3.6 mM). The series is classed as functional. To be noted: time 18 day.
The test system of series [35] is HepG2. Put plainly: Antitumor activity against human HepG2 cells xenografted in orthotopic mouse model assessed as tumor growth inhibition at 15 mg/kg, iv administered twice daily for 18 days relative to control. The class given is functional. As to conditions: HepG2, 432 h, time 18 day, read-out: TGI.
A short description of series [36]: Drug metabolism in rat liver homogenate assessed as (2S)-2-[[[(2R,3S,5R)-3-[(2S)-2-(tert-butoxycarbonylamino)propanoyl]oxy-5-(5-fluoro-2,4-dioxo-pyrimidin-1-yl)tetrahydrofuran-2-yl]methoxy-hydroxy-phosphoryl]amino]propanoic acid formation measured upto 90 mins. To be noted: tissue homogenate, 1.5 h. The series is classed as ADME, tissue-based.

As to `CC(C)OC(=O)[C@H](C)N[P@](=O)(OC[C@H]1O[C@@H](n2cc(F)c(=O)[nH]c2=O)C[C@@H]1OC(=O)[C@@H]1CCCN1C(=O)[C@@H](NC(=O)OC(C)(C)C)C(C)C)Oc1ccccc1`, the Activity in the series on HepG2 [1] is 75.24%; with Bel-7402 [2], above 70%; in series [26] it was “Non-Toxic”; in [27], “Non-Toxic”; in series [28], “Non-Toxic”; in series [29], “Non-Toxic”. Moreover, the Activity result in series [30] is “Non-Toxic”; in series [31], “Non-Toxic”; in series [32] it was “Non-Toxic”; in [33], “Toxic”. Further, the IC50 is 0.81 µM in the series on Bel-7402 [3], 0.54 µM with HepG2 [4], above 100 µM in [5] and above 100 µM in series [6]. Also, the figures for the selectivity ratio in series [7] and in series [8] were 205 and 307, respectively. Besides, the half-life at 1 mg/ml in series [9] is above 48 h; in series [10], above 48 h; in [11], 1.63 h. For the same compound, the Drug metabolism entry in series [12] and in [13] was “Metabolite_Detected” each time. For the same compound, the solubility in series [14] was below 1000 µg/mL; in [15] it was below 1000 µg/mL; in series [16], below 1000 µg/mL; in [17], below 1000 µg/mL; in [18] it was 5000 µg/mL (≈ 6.16 mM); in series [19], above 10000 µg/mL. Moreover, the solubility in series [20] was below 1000 µg/mL; in series [21] it was 5000 µg/mL (≈ 6.16 mM); in series [22], above 10000 µg/mL; in series [23] it was below 5000 µg/mL. The tumour count in the series on HepG2 [24] was found to be 35. Besides, the inhibition in vivo at 60 mg/kg in the series on HepG2 [25] came out at 28.6%.
In the case of `O=c1[nH]cc(F)c(=O)[nH]1` [FLUOROURACIL], the results for the Activity in the series with HepG2 [1] and in the series with HepG2 [34] were 8.31% and 49 mM, respectively. The IC50 is 36.5 µM in the series with Bel-7402 [3], above 100 µM with HepG2 [4], above 100 µM in series [5] and above 100 µM in series [6]. In the series on HepG2 [35], the inhibition in vivo at 15 mg/kg was found to be 0%.
In the case of `CC(C)OC(=O)[C@H](C)N[P@](=O)(OC[C@H]1O[C@@H](n2cc(F)c(=O)[nH]c2=O)C[C@@H]1OC(=O)[C@H](C)NC(=O)OC(C)(C)C)Oc1ccccc1`, the Activity in the series with HepG2 [1] is 83.61%; in the series on Bel-7402 [2], 82.19%; in [26], “Non-Toxic”; in series [27], “Non-Toxic”; in series [28] it was “Non-Toxic”; in series [29], “Non-Toxic”. The Activity result in series [30] is “Non-Toxic”; in series [31], “Non-Toxic”; in series [32], “Non-Toxic”; in series [33], “Toxic”. Moreover, the IC50 was 0.79 µM in the series on Bel-7402 [3], 0.42 µM in the series on HepG2 [4], above 100 µM in series [5] and above 100 µM in series [6]. Besides, the figures for the selectivity ratio in series [7] and in series [8] were 165 and 310, respectively. Also, the values for the half-life at 1 mg/ml in [9], in [10] and in [11] were above 48 h, above 48 h and 0.16 h, respectively. For the same compound, the Drug metabolism entry in series [36] is “Metabolite_Detected”. Also, the solubility is below 1000 µg/mL in series [14]; below 1000 µg/mL in series [15]; below 1000 µg/mL in series [16]; below 1000 µg/mL in series [17]; 5000 µg/mL (≈ 7.28 mM) in series [18]; above 10000 µg/mL in [19]. Besides, the solubility is below 1000 µg/mL in [20], 5000 µg/mL (≈ 7.28 mM) in series [21], above 10000 µg/mL in [22] and below 5000 µg/mL in series [23]. Moreover, the tumour count in the series on HepG2 [24] came out at 12. In the series with HepG2 [25], the inhibition in vivo at 60 mg/kg was 75.5%.
